Source: ChEMBL document CHEMBL1201862, “PubChem BioAssay data set” (2004)
pIC50: −log10 of the molar value. Active and inactive are the calls of the source.

What was measured:
[1] = biological target: Sphingosine 1-phosphate receptor 2 (Homo sapiens, UniProt O95136); experiment: Dose Response Cell-Based Assay for Agonists of the Sphingosine 1-Phosphate Receptor 2 (S1P2): Purchased Analogues. [Related pubchem assays: 1192, 373, 439 ]; type: functional
[2] = biological target: T1, Sphingosine 1-phosphate receptor 1 (Homo sapiens, UniProt P21453); experiment: Dose Response Cell-Based Assay for Agonists of the Sphingosine 1-Phosphate Receptor 1 (S1P1): Purchased Analogues. [Related pubchem assays: 1192, 373, 439 ]; type: functional
T1 sequence (P21453 whole entry): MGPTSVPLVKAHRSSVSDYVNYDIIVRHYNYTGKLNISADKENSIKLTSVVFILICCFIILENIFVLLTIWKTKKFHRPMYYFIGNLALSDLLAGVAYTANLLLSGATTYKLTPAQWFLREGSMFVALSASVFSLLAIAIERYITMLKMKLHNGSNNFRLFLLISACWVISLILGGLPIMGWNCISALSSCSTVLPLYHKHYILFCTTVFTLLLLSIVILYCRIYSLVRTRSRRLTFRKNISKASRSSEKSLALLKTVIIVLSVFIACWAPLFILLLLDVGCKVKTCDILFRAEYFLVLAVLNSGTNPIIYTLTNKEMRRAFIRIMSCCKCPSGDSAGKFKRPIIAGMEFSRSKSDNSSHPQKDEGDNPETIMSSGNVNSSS

[3] = biological target: T2, Sphingosine 1-phosphate receptor 3 (Homo sapiens, UniProt Q99500); experiment: Dose Response Cell-Based Assay for Agonists of the Sphingosine 1-Phosphate Receptor 3 (S1P3): Purchased Analogues. [Related pubchem assays: 373, 439 ]; type: functional
T2 sequence (Q99500 whole entry): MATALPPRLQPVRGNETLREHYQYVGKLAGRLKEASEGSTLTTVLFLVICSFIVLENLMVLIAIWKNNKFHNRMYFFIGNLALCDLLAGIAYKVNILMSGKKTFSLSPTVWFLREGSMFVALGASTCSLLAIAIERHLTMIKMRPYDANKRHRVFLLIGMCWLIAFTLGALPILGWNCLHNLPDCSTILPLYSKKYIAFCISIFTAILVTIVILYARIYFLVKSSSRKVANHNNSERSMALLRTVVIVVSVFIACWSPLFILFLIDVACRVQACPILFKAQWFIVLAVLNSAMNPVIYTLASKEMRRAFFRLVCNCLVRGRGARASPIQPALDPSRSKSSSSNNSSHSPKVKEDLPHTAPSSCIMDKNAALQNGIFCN

[4] = biological target: T2, Sphingosine 1-phosphate receptor 3; experiment: Dose response cell-based high throughput screening assay for antagonists of the Sphingosine 1-Phosphate Receptor 3 (S1P3). [Related pubchem assays: 1429, 485 ]; type: functional
[5] = HEp-2 cell cytotoxicity, dose response, cytotoxicity control for RSV inhibitor project, HTS (AID 2410); type: functional; details: human respiratory syncytial virus
[6] = biological target: 5-hydroxytryptamine receptor 1E (Homo sapiens, UniProt P28566); experiment: Counterscreen assay for S1P3 antagonists: Dose response cell-based high throughput screening assay to identify antagonists of the 5-Hydroxytryptamine Receptor Subtype 1E (5HT1E). [Related pubchem assays: 1429, 485 ]; type: functional
Chain of 5-hydroxytryptamine receptor 1E (P28566 whole entry): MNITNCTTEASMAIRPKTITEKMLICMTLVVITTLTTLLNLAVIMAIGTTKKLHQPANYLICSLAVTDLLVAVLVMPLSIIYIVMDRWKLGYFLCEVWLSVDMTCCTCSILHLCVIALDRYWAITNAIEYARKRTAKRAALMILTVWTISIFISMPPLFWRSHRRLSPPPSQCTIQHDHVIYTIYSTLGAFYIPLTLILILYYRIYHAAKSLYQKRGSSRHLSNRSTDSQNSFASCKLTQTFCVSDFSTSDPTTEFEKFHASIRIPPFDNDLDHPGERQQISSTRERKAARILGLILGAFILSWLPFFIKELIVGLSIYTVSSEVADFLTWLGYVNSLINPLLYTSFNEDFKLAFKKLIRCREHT

[7] = biological target: T1, Sphingosine 1-phosphate receptor 1; type: functional
[8] = cytotoxicity in HEK-293T cells, dose response, cytotoxicity control for TCR NF-kB inhibitor project, luminescence, T-cell screen hits (AID 489026); type: functional, cell-based;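 further: cells exposed to compound about 14 hours before the viability readout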
[9] = biological target: T3, Sphingosine 1-phosphate receptor 4 (Homo sapiens, UniProt O95977); experiment: Fluorescence dose response cell-based high throughput screening assay for antagonists of the Sphingosine 1-Phosphate Receptor 4 (S1P4). [Related pubchem assays: 1524 (Confirmation in triplicates.), 1510 (Primary screen.)]; type: functional
T3 sequence (O95977 whole entry): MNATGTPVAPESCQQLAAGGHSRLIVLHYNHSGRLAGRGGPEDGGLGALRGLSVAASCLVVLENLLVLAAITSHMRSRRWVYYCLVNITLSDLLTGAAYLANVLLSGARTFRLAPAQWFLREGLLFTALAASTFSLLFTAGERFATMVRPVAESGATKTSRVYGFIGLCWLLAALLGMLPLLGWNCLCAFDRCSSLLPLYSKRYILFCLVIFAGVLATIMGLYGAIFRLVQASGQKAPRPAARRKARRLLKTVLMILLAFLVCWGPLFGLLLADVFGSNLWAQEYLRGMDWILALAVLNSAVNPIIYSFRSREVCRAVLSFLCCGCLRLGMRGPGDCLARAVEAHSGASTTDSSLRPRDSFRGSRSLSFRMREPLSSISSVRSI

BJ [10] = experiment: cytotoxicity toward Ras-transformed BJeLR fibroblasts, dose response, cell-based, alamar blue fluorescence, cherrypicked samples (AID 2631); type: functional; details: Homo sapiens;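 further: confirmatory dose-response assay in RAS-dependent BJ fibroblasts engineered with TERT, LT and ST, with cytotoxicity read by fluorescence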
[11] = THP-1 cell cytotoxicity, dose response, cytotoxicity control for non-replicating M. tuberculosis project (AID 489025); type: functional
[12] = biological target: T4, Heat shock factor protein 1 (Mus musculus, UniProt P38532); experiment: inhibition of MG132-induced HSE-luciferase signal, confirmation, cell-based, NIH3T3, luminescence, dose retest (AID 2382); type: functional;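 further: NIH3T3 fibroblasts with HSF1-driven luciferase reporter stressed by proteasome inhibitor MG132; luminescence from HSF1-driven luciferase expression after 8 hours of MG132 stress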
T4 sequence (P38532 whole entry): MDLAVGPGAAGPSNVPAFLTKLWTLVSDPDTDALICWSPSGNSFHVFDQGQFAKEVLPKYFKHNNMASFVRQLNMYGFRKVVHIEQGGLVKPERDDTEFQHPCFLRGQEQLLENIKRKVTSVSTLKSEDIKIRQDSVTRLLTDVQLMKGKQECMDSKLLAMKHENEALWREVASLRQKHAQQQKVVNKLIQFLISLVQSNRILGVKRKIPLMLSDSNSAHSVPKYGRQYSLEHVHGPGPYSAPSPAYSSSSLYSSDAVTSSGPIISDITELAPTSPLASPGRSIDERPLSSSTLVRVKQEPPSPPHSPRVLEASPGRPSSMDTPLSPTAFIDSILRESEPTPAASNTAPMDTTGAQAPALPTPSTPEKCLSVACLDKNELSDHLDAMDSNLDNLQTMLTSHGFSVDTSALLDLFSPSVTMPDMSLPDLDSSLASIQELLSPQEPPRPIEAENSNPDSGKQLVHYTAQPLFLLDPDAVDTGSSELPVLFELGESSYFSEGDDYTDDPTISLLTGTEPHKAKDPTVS

BJ [13] = experiment: cytotoxicity toward BJ-TERT fibroblasts, dose response, cell-based, RAS-independent, luminescence (AID 1933); type: functional; details: Homo sapiens
[14] = cytotoxicity toward DRD oncogenic fibroblasts, dose response, cell-based, non-viral oncogenic, luminescence (AID 1934); type: functional; details: Homo sapiens
BJ [15] = experiment: cells; type: functional, cell-based; details: Homo sapiens
BJ [16] = experiment: cytotoxicity toward BJ-TERT-LT-ST fibroblasts, dose response, cell-based, RAS-independent, luminescence (AID 1935); type: functional; details: Homo sapiens;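 further: BJ fibroblasts immortalized with TERT plus LT and ST oncogenes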
[17] = biological target: T5, G-protein coupled receptor 55 (Homo sapiens, UniProt Q9Y2T6); experiment: GPR55 agonists via beta-arrestin recruitment, primary screen, imaging, U2OS cells, beta-arrestin-GFP redistribution (AID 1961); type: functional
T5 sequence (Q9Y2T6 whole entry): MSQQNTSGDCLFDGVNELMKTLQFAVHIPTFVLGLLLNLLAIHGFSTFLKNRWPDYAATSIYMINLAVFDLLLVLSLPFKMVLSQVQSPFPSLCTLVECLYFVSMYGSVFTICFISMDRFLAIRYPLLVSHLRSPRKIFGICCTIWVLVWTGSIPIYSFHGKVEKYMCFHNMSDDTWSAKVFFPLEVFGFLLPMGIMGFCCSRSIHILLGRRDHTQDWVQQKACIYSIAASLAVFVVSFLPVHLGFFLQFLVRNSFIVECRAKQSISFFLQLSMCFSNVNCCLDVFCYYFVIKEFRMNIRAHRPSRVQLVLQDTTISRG

[18] = biological target: Epstein-Barr nuclear antigen 1 (Epstein-Barr virus (strain B95-8) (HHV-4) (Human herpesvirus 4), UniProt P03211); experiment: EBNA-1 inhibitors, dose response, biochemical, fluorescence polarization, 1536-well (AID 2381); set-up: species or system human gammaherpesvirus 4;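 further: fluorescence polarization of a Cy5 DNA probe bound by EBNA-1 protein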
[19] = biological target: Lytic switch protein BZLF1 (Epstein-Barr virus (strain B95-8) (HHV-4) (Human herpesvirus 4), UniProt P03206); experiment: EBV ZTA inhibitors, dose response, counter-screen for EBNA-1 inhibitor project, biochemical, fluorescence polarization, Epstein-Barr virus, 1536-well (AID 2377); set-up: species or system human gammaherpesvirus 4;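 further: fluorescence polarization of Cy5-labelled ZRE DNA probe bound by purified Zta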
Chain of Lytic switch protein BZLF1 (P03206 whole entry): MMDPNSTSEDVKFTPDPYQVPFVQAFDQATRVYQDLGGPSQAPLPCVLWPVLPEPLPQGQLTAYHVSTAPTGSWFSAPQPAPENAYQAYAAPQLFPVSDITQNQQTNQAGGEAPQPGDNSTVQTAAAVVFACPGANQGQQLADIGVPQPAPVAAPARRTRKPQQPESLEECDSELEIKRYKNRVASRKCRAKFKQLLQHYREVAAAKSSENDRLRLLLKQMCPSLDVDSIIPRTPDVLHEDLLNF

Bcl-2-related protein A1 [20] = biological target: T6, Bcl-2-related protein A1 (Mus musculus, UniProt Q07440); experiment: Bfl-1 inhibitors, primary screen, biochemical, fluorescence polarization, FITC-Bid, mouse (AID 432)
T6 sequence (Q07440 whole entry): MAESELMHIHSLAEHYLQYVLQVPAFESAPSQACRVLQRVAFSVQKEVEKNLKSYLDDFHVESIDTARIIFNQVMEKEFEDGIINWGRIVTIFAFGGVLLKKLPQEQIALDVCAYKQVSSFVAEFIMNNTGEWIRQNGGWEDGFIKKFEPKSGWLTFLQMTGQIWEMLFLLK

fMet-Leu-Phe receptor = fMet-Leu-Phe receptor (Homo sapiens, UniProt P21462); experiment: FPR ligands, dose response (AID 519); type: functional
Bcl-2-related protein A1 [21] = biological target: T6, Bcl-2-related protein A1; experiment: Bfl-1 inhibitors blocking BH3 peptide binding, confirmation, biochemical, TR-FRET, mouse Bfl-1 (AID 621);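 further: TR-FRET binding of GST-Bfl-1 to FITC-labelled Bid peptide via terbium antibody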
[22] = enhancers of respiration in Yfh1-depleted yeast, dose response, Friedreich's ataxia, plus single-dose screen (AID 1465); type: functional;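 further: yeast depleted of Yfh1p frataxin homolog grown on glycerol needing respiration; WST-1 tetrazolium dye reduction as measure of cellular dehydrogenase metabolic activity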
Streptokinase A = biological target: T7, Streptokinase A (Streptococcus pyogenes serotype M1, UniProt P10520); experiment: S. pyogenes streptokinase expression inhibitors, potency, dose response, plasminogen activation absorbance, OD405 (AID 1914); type: functional, Streptococcus pyogenes M1 GAS;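 further: secreted streptokinase activity via plasminogen activation per viability signal from cell pellet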
T7 sequence (P10520 whole entry): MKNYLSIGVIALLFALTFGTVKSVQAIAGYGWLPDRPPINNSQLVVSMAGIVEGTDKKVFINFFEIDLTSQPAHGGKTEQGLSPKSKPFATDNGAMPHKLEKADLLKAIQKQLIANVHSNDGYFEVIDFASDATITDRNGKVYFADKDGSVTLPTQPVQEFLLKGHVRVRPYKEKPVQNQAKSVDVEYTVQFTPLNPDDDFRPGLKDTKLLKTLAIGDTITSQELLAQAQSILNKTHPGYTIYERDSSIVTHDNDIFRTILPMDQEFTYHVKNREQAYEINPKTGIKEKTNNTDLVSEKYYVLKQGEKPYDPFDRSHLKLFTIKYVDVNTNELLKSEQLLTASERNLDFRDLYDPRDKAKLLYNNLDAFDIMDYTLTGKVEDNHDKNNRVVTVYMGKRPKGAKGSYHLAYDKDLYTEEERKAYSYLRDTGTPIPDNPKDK

[23] = biological target: Matrix metalloproteinase-14 (Homo sapiens, UniProt P50281); experiment: Dose Response confirmation of uHTS hits for a small molecule inhibitors of MT1-MMP activation in a fluorescence assay set 2.; type: functional
[24] = biological target: T8, Kappa-type opioid receptor (Homo sapiens, UniProt P41145); type: functional
T8 sequence (P41145 whole entry): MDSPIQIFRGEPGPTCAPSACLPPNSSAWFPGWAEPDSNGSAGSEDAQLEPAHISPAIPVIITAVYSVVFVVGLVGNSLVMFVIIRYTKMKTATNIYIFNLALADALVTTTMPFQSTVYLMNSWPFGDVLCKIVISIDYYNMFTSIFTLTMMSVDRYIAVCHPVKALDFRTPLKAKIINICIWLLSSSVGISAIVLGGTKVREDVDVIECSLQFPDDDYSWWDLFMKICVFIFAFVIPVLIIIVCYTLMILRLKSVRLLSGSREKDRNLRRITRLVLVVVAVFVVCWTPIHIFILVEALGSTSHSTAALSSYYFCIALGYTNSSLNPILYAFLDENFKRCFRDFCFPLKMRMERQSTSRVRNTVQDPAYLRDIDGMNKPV

[25] = tested on: Streptococcus sp. 'group A'; experiment: growth inhibition of control SK(-) GAS strain, dose response, counter-screen for streptokinase expression inhibitor project, luminescence, kanamycin, BacTiterGlo, confirmation (AID 1900); type: functional, organism-based
Beta-galactosidase = Beta-galactosidase (Escherichia coli, UniProt Q8VNN2); type: functional
Chain of Beta-galactosidase (Q8VNN2 whole entry): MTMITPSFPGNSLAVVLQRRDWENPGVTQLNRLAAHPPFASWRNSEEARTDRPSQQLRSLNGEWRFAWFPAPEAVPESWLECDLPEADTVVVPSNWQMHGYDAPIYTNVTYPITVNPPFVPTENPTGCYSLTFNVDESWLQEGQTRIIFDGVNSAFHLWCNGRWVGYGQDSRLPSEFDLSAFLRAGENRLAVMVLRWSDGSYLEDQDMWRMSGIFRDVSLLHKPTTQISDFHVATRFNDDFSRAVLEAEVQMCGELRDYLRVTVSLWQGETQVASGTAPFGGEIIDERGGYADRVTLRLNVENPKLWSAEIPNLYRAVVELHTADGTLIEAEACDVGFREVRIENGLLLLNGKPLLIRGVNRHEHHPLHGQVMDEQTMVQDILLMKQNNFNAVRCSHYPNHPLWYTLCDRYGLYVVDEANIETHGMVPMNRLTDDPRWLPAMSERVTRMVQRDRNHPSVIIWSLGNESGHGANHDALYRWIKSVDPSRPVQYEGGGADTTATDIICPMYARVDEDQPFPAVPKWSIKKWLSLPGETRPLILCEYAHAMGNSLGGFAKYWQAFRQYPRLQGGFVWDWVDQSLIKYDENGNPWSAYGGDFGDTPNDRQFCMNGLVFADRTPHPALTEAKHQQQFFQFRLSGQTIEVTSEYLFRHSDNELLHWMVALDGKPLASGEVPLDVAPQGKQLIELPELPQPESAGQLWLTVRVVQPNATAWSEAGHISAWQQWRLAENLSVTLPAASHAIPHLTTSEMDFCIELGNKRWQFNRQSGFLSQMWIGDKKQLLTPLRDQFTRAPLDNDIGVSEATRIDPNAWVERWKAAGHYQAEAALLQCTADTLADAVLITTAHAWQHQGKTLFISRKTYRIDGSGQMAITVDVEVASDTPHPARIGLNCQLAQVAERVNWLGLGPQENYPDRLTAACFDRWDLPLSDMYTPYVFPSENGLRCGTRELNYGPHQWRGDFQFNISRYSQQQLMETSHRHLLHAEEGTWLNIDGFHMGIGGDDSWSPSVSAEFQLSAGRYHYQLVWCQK

[26] = biological target: T8, Kappa-type opioid receptor; type: functional; remark: listed apart in the source
[27] = biological target: T5, G-protein coupled receptor 55; experiment: GPR55 antagonists blocking LPI-driven arrestin recruitment, primary screen, imaging, U2OS, beta-arrestin-GFP, LPI agonist (AID 2013); type: functional;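 further: antagonist potency measured as reduced agonist-driven arrestin aggregation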
Streptococcus = experiment: Group A Streptococcus viability loss, dose response, counter-screen for streptokinase expression inhibitor project, luminescence, BacTiterGlo (AID 1915); type: functional, organism-based;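 further: potency for reduction of bacterial viability or growth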
[28] = A High Throughput Confirmatory Assay used to Identify Novel Compounds that Inhibit Mycobacterium Tuberculosis in the absence of Glycerol.; type: functional
Nonstructural protein 1 = Nonstructural protein 1 (Influenza A virus, UniProt Q194T2); type: functional, Influenza A virus (A/California/07/2009(H1N1))
Chain of Nonstructural protein 1 (Q194T2 whole entry): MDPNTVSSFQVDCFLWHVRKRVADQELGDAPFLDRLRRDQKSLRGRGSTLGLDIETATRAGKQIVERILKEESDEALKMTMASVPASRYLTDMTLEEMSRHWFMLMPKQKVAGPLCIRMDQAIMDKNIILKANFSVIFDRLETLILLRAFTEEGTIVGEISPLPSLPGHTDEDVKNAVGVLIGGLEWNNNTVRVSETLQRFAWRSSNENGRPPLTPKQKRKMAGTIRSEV

H9c2 = experiment: cells; type: functional, cell-based; details: Rattus norvegicus, H9c2, Myocardium;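 further: confirmatory concentration-response retest of ultra-high-throughput screening hits for modulation of myocardial damage; cell death induced by hydrogen peroxide oxidative stress; compound pretreatment for 60 min then peroxide exposure for 2 h; potency is for protecting the cells against peroxide damage rather than for killing them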
[29] = inhibitors of Bluetongue virus cytopathic effect, confirmation, arbovirus, BSR cells (AID 1250); type: functional;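 further: protection from viral cytopathic effect measured as cell viability by ATP luminescence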
NS3 = NS3 (Hepatitis C virus, UniProt A3EZJ3); experiment: PubChem AID 2173; set-up: species or system Hepacivirus hominis
Chain of NS3 (A3EZJ3 whole entry): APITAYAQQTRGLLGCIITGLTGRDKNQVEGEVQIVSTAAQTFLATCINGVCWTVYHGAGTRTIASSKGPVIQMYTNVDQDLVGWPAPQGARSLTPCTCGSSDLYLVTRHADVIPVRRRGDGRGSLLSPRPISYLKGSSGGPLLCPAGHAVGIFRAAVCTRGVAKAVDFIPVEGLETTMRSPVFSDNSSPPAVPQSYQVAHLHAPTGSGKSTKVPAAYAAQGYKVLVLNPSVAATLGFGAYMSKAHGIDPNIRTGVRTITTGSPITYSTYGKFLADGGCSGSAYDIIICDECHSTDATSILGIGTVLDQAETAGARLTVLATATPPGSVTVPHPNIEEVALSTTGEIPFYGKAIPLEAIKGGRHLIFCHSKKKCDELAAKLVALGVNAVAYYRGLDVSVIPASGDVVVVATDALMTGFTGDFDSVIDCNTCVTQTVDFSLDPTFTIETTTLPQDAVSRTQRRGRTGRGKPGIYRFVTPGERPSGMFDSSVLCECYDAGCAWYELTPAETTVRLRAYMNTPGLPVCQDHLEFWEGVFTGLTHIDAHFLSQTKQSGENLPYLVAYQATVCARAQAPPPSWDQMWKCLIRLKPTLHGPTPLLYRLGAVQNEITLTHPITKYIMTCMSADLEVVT

[30] = biological target: Induced myeloid leukemia cell differentiation protein Mcl-1 (Homo sapiens, UniProt Q07820); type: functional
Chain of Induced myeloid leukemia cell differentiation protein Mcl-1 (Q07820 whole entry): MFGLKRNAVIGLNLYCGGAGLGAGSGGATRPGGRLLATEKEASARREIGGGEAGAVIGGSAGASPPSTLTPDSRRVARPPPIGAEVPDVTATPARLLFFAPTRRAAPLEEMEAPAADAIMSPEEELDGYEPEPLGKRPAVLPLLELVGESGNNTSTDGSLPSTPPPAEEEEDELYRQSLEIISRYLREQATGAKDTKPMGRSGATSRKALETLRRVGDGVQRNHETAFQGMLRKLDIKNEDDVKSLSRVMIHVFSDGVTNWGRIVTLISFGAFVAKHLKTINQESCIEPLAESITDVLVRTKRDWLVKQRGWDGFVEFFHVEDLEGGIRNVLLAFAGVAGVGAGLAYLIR

[31] = biological target: Mannose-6-phosphate isomerase (Homo sapiens, UniProt P34949); experiment: inhibitors of human PMI, primary screen, biochemical, fluorescence intensity, coupled assay (AID 1209)
Chain of Mannose-6-phosphate isomerase (P34949 whole entry): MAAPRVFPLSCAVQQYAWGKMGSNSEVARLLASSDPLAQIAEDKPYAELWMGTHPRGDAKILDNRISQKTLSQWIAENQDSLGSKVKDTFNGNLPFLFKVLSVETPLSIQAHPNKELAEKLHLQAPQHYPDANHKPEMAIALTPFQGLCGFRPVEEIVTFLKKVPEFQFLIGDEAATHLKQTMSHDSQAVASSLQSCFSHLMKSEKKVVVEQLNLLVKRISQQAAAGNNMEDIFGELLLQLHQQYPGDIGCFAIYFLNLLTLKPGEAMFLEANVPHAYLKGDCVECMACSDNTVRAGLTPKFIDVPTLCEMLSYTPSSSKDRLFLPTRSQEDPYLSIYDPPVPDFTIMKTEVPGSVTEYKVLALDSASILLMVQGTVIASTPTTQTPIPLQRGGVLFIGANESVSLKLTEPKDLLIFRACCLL

Vero = Vero cell cytotoxicity, cytotoxicity control for flavivirus capping enzyme inhibitors (AID 588742); type: functional; details: Chlorocebus sabaeus

Cc1cc(C(=O)N2C(C)CCCC2C)no1 (centres undefined)
EC50 [1]: > 10 µM (not active) | EC50 [2]: > 50 µM (not active) | EC50 [3]: > 50 µM (not active)

CCCC[C@@H]1C[C@H]1[C@@H](NC(=O)c1cccs1)c1ccc(Cl)cc1
IC50 [4]: 1.21 µM (active) | CC50 [5]: 20.8 µM (active) | IC50 [6]: 2.47 µM (active)

CC1(C)C[C@H]2C=C(C=O)[C@]3(C=O)C[C@]3(C)[C@H]2C1 [ISOVELLERAL]
IC50 [7]: 4.96 µM (active) | IC50 [8]: > 80 µM (inactive) | IC50 [9]: 0.253 µM (active) | EC50 (BJ [10]): 0.575 µM (inconclusive) | CC50 [11]: 29.5 µM (active) | EC50 [12]: 0.53 µM (active) | EC50 (BJ [13]): 5.11 µM (inconclusive) | EC50 [14]: 5.29 µM (inconclusive) | EC50 (BJ [15]): 5.77 µM (inconclusive) | EC50 (BJ [16]): 3.8 µM (inconclusive) | EC50 [17]: < 0.5 µM (active)

COc1cccc(OC)c1C(=O)Nc1nc2cc3c(cc2s1)OCO3
IC50 [18]: 15.5 µM (not active) | IC50 [19]: > 111 µM (not active)

O=C(C1=C(O)C(=O)N(c2ncccn2)C1c1cccc(Cl)c1)c1ccco1 (centres undefined)
IC50 (Bcl-2-related protein A1 [20]): > 100 µM (not active) | Ki (fMet-Leu-Phe receptor): > 66.7 µM (inactive) | IC50 (Bcl-2-related protein A1 [21]): > 100 µM (not active)

COc1ccccc1N=Nc1nc(-c2ccccc2)c(-c2ccccc2)[nH]1
EC50 [22]: > 100 µM (active) | EC50 (Streptokinase A): 89.6 µM (active) | IC50 [23]: 36.8 µM (inactive) | pIC50 [24]: < 4.49 | EC50 [25]: 1.97 µM (active) | EC50 (Beta-galactosidase): 23.9 µM (active) | IC50 [26]: 24 µM (inactive) | IC50 [27]: 0.587 µM (active) | EC50 (Streptococcus): > 150 µM (not active)

CC(C)OC(=O)c1ccc(NC(=S)NC(=O)c2cncc(Br)c2)cc1
IC50 [28]: > 100 µM (active)

CC(=O)Nc1ccc(C(=O)Nc2nc(-c3ccccn3)cs2)cc1
IC50 (Nonstructural protein 1): 7.8 µM (active) | IC50 (H9c2): > 79 µM (inactive) | IC50 [29]: 38 µM (active)

CNc1ccc(Br)cc(C(=O)/C=C/c2cccc(Cl)c2Cl)c1=O
IC50 (NS3): 5.02 µM (active) | IC50 [30]: 2.63 µM (active)

CC(=O)Oc1ccc2c(=O)c(Oc3ccccc3)c(C)oc2c1OC(C)=O
IC50 [31]: 44.8 µM (active) | CC50 (Vero): 38.1 µM (active)
